Source: US20150045330A1, “PROPHYLACTIC AND THERAPEUTIC DRUG FOR AMYOTROPHIC LATERAL SCLEROSIS AND METHOD OF SCREENING THEREFOR” (priority 2012, published 2015)

Assays:
insoluble TDP-43 = assay: Amount of TDP-43 protein insoluble in 1% Triton X-100 solution in ALS-MNs; type: cell-based, human; settings: AA addition, FIGS. 12G and H
ALS-MNs [1] = assay: Length of neurite in HB9::GFP-positive ALS-MNs (IN Cell Analyzer 2000); type: cell-based, human; settings: AA addition vs control group; FIGS. 12E and F
NEFL = NEFL expression level in ALS-MNs (quantitative PCR); type: cell-based, human; settings: AA addition
NEFM = NEFM expression level in ALS-MNs (quantitative PCR); type: cell-based, human; settings: AA addition
[2] = test system: ALS-iPS cell-derived neurons; assay: Gene expression category analysis (gene ontology) in ALS-iPS cell-derived neurons; type: cell-based, human; settings: AA addition vs non-addition; FIG. 13A
[3] = test system: TNFα/NF-κB, andorogen receptor and α6β4 integrin pathways; assay: Signal transduction pathway analysis in ALS-iPS cell-derived neurons; type: cell-based, human; settings: AA addition vs non-addition; FIG. 13B
ALS-MNs [4] = assay: MDA (malondialdehyde)-modified protein in total protein by Western blotting; type: cell-based, human; settings: AA addition vs non-addition, particularly proteins of about 30 kDa to 50 kDa, FIG. 14
Description: Sequentially, to confirm an antioxidant action of AA, the amount of the protein modified with MDA (malondialdehyde) in the total protein was confirmed by Western blotting using 5 to 15% gradient gel in the AA addition group and the AA non-addition group of control MNs or ALS-MNs. […] This tendency was particularly strong in proteins having a size of about 30 kDa to 50 kDa.

ALS-MNs [5] = assay: Arsenite-induced cell death of iPS cell-derived ALS motor neurons (HB9::GFP-positive cell number); type: cell-based, human; settings: added 16 or 48 hr before arsenite addition, FIG. 12D
ALS-MNs [6] = test system: ALS-MNs

CCCCCCCCCCCCCCCc1cccc(O)c1C(=O)O [anacardic acid]
amount of insoluble TDP-43 (insoluble TDP-43): decreased | length of neurite in ALS-MNs (ALS-MNs [1]): significantly increased | expression level of NEFL (NEFL): increased | expression level of NEFM (NEFM): increased | factors relating to intermediate filament cytoskeleton, intermediate filament and keratin filament [2]: increased | factors relating to translation, RNP complex, RNA binding, RNA metabolism pathway, RNA processing, RNA splicing and spliceosomal complex [2]: decreased | TNFα/NF-κB, andorogen receptor and α6β4 integrin pathways [3]: decreased | amount of MDA-modified protein in the total protein (ALS-MNs [4]): decreased the amount

CO[C@]1(C)C[C@@]2(CO2)[C@H](O)[C@@H](/C=C/C(C)=C/C[C@@H]2O[C@H](C)[C@H](NC(=O)/C=C\[C@H](C)OC(C)=O)C[C@@H]2C)O1 [splicesostatin A]
suppression of arsenite-induced cell death of ALS-MNs (ALS-MNs [5]; 100 ng/ml): did not show such action

CC(/C=C/C(=O)NO)=C\[C@@H](C)C(=O)c1ccc(N(C)C)cc1 [trichostatin A]
suppression of arsenite-induced cell death of ALS-MNs (ALS-MNs [5]; 3 μM): did not show such action

arsenite
RNA granule formation (ALS-MNs [6]): promotion | insoluble TDP-43 (ALS-MNs [6]): increase | number of cells subjected to EthD-1-positive injury (ALS-MNs [6]): significantly high
